Assay results from patent US20140323500A1, “NADPH OXIDASE 4 INHIBITORS AND USE THEREOF” (GENKYOTEX SA, priority 2011, published 2014).

System: female mice subjected to ovariectomy
Assay: Ovariectomy-induced osteoporosis (bone loss) in mice
Assay type: in vivo
Procedure: BMD of the left femur was measured by peripheral quantitative computed tomography (QCT) using an XCT Research QCT machine (Stratec Medizintechnik, Pforzheim, Germany). One slice (0.2 mm thick) in the mid-diaphysis of the femur and 3 slices in the distal femoral metaphysis located 1.5, 2, and 2.5 mm proximal to the articular surface of the knee joint were measured. BMD values of the distal femoral metaphysic were calculated as the mean of 3 slices. A voxel size of 0.070 mm and a threshold of 710 mg/cm^3 were used for calculation of BMD as described in Hofbauer et al., 2009, Arthritis Rheum., 60(5):1427-1437.
The control group received daily gavages by the solvent.
To study the latter effect, female mice were subjected to ovariectomy to induce osteoporosis and the effect of pharmacological inhibition of Nox4 with a Nox4 inhibitor as well as acute genetic knockout of the protein was studied. For this, mice were subjected to ovariectomy 8 weeks after birth and treatment at 60 mg/kg with a Nox4 inhibitor of the invention was started 2 days after the operation and continued throughout the study (6 weeks).
3, Hamburg was used which completely blocks osteoclast activity. […] For this, bones were scanned with a skyscan 1176 and bone density was analysed with the integrated software using two phantoms with 0.25 g/cm^3 and 0.75 g/cm^3 as reference. A 2 mm portion of the femur from the tibia plateau was analysed for total and trabecular bone density by the software provided by the manufacturer of the machine. […] For this method, the femurs were loaded to failure by 3-point bending tests using a Zwick Z020/TN2A materials testing machine (Zwick, Ulm, Germany) with a 1 kN force detector, and a force resolution of 0.01N. The distance between the lower supports for the bending tests was 5 mm. Crosshead speed during testing was 0.2 mm/minute for all measurements. From the force-displacement data, ultimate force (Fmax; in N) was calculated.

## COc1ccc(-c2c3c(=O)n(-c4ccccc4OC)[nH]c3cc(=O)n2Cc2cccnc2)c(F)c1 [Compound (1), 4-(2-fluoro-4-methoxyphenyl)-2-(2-methoxyphenyl)-5-(pyridin-3-ylmethyl)-1H-pyrazolo[4,3-c]pyridine-3,6(2H,5H)-dione]
Distal femur 6 weeks after ovariectomy, compound 1 at 20 and 60 mg/kg, pamidronat 10 mg/kg once a week, microCT, FIG. 6A
  absolute bone density (total): increased absolute bone density
Distal femur 6 weeks after ovariectomy, compound 1 at 20 and 60 mg/kg, pamidronat 10 mg/kg once a week, microCT, FIG. 6B
  absolute trabecular bone density: increased
Distal femur 6 weeks after ovariectomy, compound 1 at 20 and 60 mg/kg, pamidronat 10 mg/kg once a week, microCT, FIG. 6C
  relative inhibition of ovarectomy-induced total bone loss: ~50%
Distal femur 6 weeks after ovariectomy, compound 1 at 20 and 60 mg/kg, pamidronat 10 mg/kg once a week, microCT, FIG. 6D
  relative inhibition of trabecular bone loss: approximately 60%
Highest concentration (of 20 and 60 mg/kg), femur, 6 weeks after ovariectomy, FIG. 6E
  bone breaking strength (3-point breaking test): significant increase in bone breaking strength
